Measurements reported in patent US10328053B2 (Gilead Sciences, Inc., priority 2016, dated 2019).

What was measured:
[1] = tested on: HBV AD38 viral particles in HepG2 cell line overexpressing NTCP; assay: HBV DNA Quantification Assay; format: cell-based; settings: Hepatitis B virus, HepG2, 120 h, HBV-infected HepG2-NTCP cells, 5 days incubation, HBV DNA in culture supernatant (QuantiGene 2.0); geometric mean of a minimum of four determinations
Protocol: HBV DNA Quantification Assay
A HepG2 cell line overexpressing the HBV virus attachment receptor sodium-taurocholate cotransporting polypeptide (NTCP) was grown to confluency in DMEM growth medium, Dulbecco's Modified Eagle Medium without sodium pyruvate (Life Technologies, Rockville, Md.) supplemented with 10% FBS (Thermo Scientific, Waltham, Md.), 1% penicillin/streptomycin (Life Technologies, Rockville, Md.) and 2 mM L-glutamine (Life Technologies, Rockville, Md.) in T175 flasks. Cells were infected with HBV AD38 viral particles (Texcell, Frederick, USA) at 4000 genome equivalents per cell. After allowing viral infection to take place for 4 days, the infected cells were harvested from the flasks by trypsinization, washed twice with OptiMEM (Life Technologies, Rockville, Md.) and re-suspended in DMEM containing 2% FBS and 1% DMSO at a density of 0.25E6 cells/ml. Infected cells were seeded on 384 well collagen coated plates (Greiner, Austria) at a density of 20,000 cells/well containing serially diluted compounds of the present disclosure or DMSO (0.5%) in a final volume of 80 μl. The assay plates were incubated for a period of 5 days and the antiviral activity of the test compounds were assayed by detecting the presence of HBV DNA in the culture supernatant using the QuantiGene™ 2.0 nucleic acid quantification kit (Affymetrix, Santa Clara, Calif.).
The culture supernatant was harvested and treated with lysis buffer containing Proteinase K (Affymetrix, Santa Clara, Calif.). The supernatant was incubated with HBV viral DNA specific probes (Affymetrix, Santa Clara, Calif.) for 30 minutes at 55° C. This was followed by addition of 0.2M NaOH for 30 minutes at room temperature to denature the DNA, followed by addition of Neutralization buffer (Affymetrix, Santa Clara, Calif.). The resulting lysed and neutralized supernatant was then added to QuantiGene™ 2.0 384 well plates coated with capture oligonucleotides and incubated overnight at 55° C. The HBV specific probe set consists of Capture Extender oligonucleotides (CE's) and blocking probes. Following the overnight incubation, the wells were incubated for one hour sequentially with a Pre-Amplifier, Amplifier and Labeled probes conjugated to alkaline phosphatase with a wash step between incubations. After the final wash step, the alkaline phosphatase substrate (Luminol APS5) was added and the resulting luminescence signal was read in an EnVision Multilabel Plate Reader (PerkinElmer, Santa Clara, Calif.). The EC50 values were calculated from the fit of the dose—response curves to a four-parameter equation. All EC50 values represent geometric mean values of a minimum of four determinations.

[2] = Hepatic Stability Assay (in vitro half-life method); format: in vitro ADME; parameters: dose or concentration left out as unconfirmed; settings: pooled cryopreserved hepatocytes, 37° C., 1×10^6 cells/mL, 0-6 hours, LC-MS/MS, 39.5 hours is the maximum detectable half life, read-out: t½ (converted)
Outline: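 Pooled cryopreserved hepatocytes (1×10^6 cells/mL) incubated with compound at […] test concentration, 37° C.; samples at 0, 1, 3 and 6 h quantified by LC-MS/MS. Half-life from rate of compound disappearance, scaled to predicted hepatic clearance via well-stirred model.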

SMILES	EC50 [1] [nM]	half-life [2] [h]
Cc1c(C(=O)C(=O)NC2(C(=O)N3CCC34COC4)CC(F)(F)C2)c2n(c1C(=O)Nc1ccc(F)c(Cl)c1)CCC2 [Example 11, N-(3-chloro-4-fluorophenyl)-7-(2-((3,3-difluoro-1-(6-oxa-1-azaspiro[3.3]heptane-1-carbonyl)cyclobutyl)amino)-2-oxoacetyl)-6-methyl-2,3-dihydro-1H-pyrrolizine-5-carboxamide]	7.7	0.7
CNC(=O)C1(NC(=O)C(=O)c2c(C)c(C(=O)Nc3cc(F)c(F)c(F)c3)n3c2C[C@H]2C[C@H]23)CC(F)(F)C1 [Example 38, (1aR,6aR)-5-(2-((3,3-difluoro-1-(methylcarbamoyl)cyclobutyl)amino)-2-oxoacetyl)-4-methyl-N-(3,4,5-trifluorophenyl)-1,1a,6,6a-tetrahydrocyclopropa[b]pyrrolizine-3-carboxamide]	13	13.8
Cc1c(C(=O)C(=O)NC2(c3c[nH]nn3)CC2)c2n(c1C(=O)Nc1cccc(C#N)c1)CCC2 [Example 75, 7-(2-((1-(1H-1,2,3-triazol-4-yl)cyclopropyl)amino)-2-oxoacetyl)-N-(3-cyanophenyl)-6-methyl-2,3-dihydro-1H-pyrrolizine-5-carboxamide]	106	17.3
Cc1c(C(=O)C(=O)NC2(c3c[nH]nn3)CC2)c2n(c1C(=O)Nc1cc(F)cc(C#N)c1)CCC2 [Example 126, 7-(2-((1-(1H-1,2,3-triazol-4-yl)cyclopropyl)amino)-2-oxoacetyl)-N-(3-cyano-5-fluorophenyl)-6-methyl-2,3-dihydro-1H-pyrrolizine-5-carboxamide]	166	10.7
Cc1c(C(=O)C(=O)NC2(c3c[nH]nn3)COC2)c2n(c1C(=O)Nc1ccc(F)c(Cl)c1)CCC2 [Example 88, 7-(2-((3-(1H-1,2,3-triazol-4-yl)oxetan-3-yl)amino)-2-oxoacetyl)-N-(3-chloro-4-fluorophenyl)-6-methyl-2,3-dihydro-1H-pyrrolizine-5-carboxamide]	8.7	9.9
Cc1c(C(=O)C(=O)NC2(c3c[nH]nn3)CC(F)(F)C2)c2n(c1C(=O)Nc1ccc(F)c(Cl)c1)CCC2 [Example 29, N-(3-chloro-4-fluorophenyl)-7-(2-((3,3-difluoro-1-(1H-1,2,3-triazol-4-yl)cyclobutyl)amino)-2-oxoacetyl)-6-methyl-2,3-dihydro-1H-pyrrolizine-5-carboxamide]	3.1	16.1
Cc1c(C(=O)C(=O)NC2(c3c[nH]nn3)CC(F)(F)C2)c2n(c1C(=O)Nc1cc(F)c(F)c(F)c1)[C@@H]1C[C@@H]1C2 [Example 40, (1aR,6aR)-5-(2-((3,3-difluoro-1-(1H-1,2,3-triazol-4-yl)cyclobutyl)amino)-2-oxoacetyl)-4-methyl-N-(3,4,5-trifluorophenyl)-1,1a,6,6a-tetrahydrocyclopropa[b]pyrrolizine-3-carboxamide]	1.9	5.2
CNC(=O)C1(NC(=O)C(=O)c2c(C)c(C(=O)Nc3ccc(F)c(Cl)c3)n3c2[C@H]2C[C@H]2C3)CC(F)(F)C1 [Example 34, (1aR,6bS)—N-(3-chloro-4-fluorophenyl)-6-(2-((3,3-difluoro-1-(methylcarbamoyl)cyclobutyl)amino)-2-oxoacetyl)-5-methyl-1,1a,2,6b-tetrahydrocyclopropa[a]pyrrolizine-4-carboxamide]	202	18.1
Cc1c(C(=O)C(=O)NC2(CNC3(C)CS(=O)(=O)C3)CC(F)(F)C2)c2n(c1C(=O)Nc1ccc(F)c(Cl)c1)CCC2 [Example 8, N-(3-chloro-4-fluorophenyl)-7-(2-((3,3-difluoro-1-(((3-methyl-1,1-dioxidothietan-3-yl)amino)methyl)cyclobutyl)amino)-2-oxoacetyl)-6-methyl-2,3-dihydro-1H-pyrrolizine-5-carboxamide]	72	0.4
Cc1c(C(=O)C(=O)NC2(c3c[nH]nn3)CC2)c2n(c1C(=O)Nc1cc(Cl)cc(Cl)c1)CCC2 [Example 102, 7-(2-((1-(1H-1,2,3-triazol-4-yl)cyclopropyl)amino)-2-oxoacetyl)-N-(3,5-dichlorophenyl)-6-methyl-2,3-dihydro-1H-pyrrolizine-5-carboxamide]	112	4.8
CNC(=O)C1(NC(=O)C(=O)c2c(C)c(C(=O)Nc3ccc(F)c(C#N)c3)n3c2CCC3C)CC(F)(F)C1 (stereo not shown) [Example 19, N-(3-cyano-4-fluorophenyl)-7-(2-((3,3-difluoro-1-(methylcarbamoyl)cyclobutyl)amino)-2-oxoacetyl)-3,6-dimethyl-2,3-dihydro-1H-pyrrolizine-5-carboxamide]	167	18.3
CNC(=O)[C@](C)(NC(=O)C(=O)c1c(C)c(C(=O)Nc2ccc(F)c(F)c2)n2c1CCC2)C(F)(F)F [Example 138, (S)—N-(3,4-difluorophenyl)-6-methyl-7-(2-oxo-2-((1,1,1-trifluoro-2-methyl-3-(methylamino)-3-oxopropan-2-yl)amino)acetyl)-2,3-dihydro-1H-pyrrolizine-5-carboxamide]	160	17.9
Cc1c(C(=O)C(=O)NC2(c3c[nH]nn3)CC2)c2n(c1C(=O)Nc1ccc(F)c(Cl)c1)C[C@H](F)C2 [Example 45, (R)-7-(2-((1-(1H-1,2,3-triazol-4-yl)cyclopropyl)amino)-2-oxoacetyl)-N-(3-chloro-4-fluorophenyl)-2-fluoro-6-methyl-2,3-dihydro-1H-pyrrolizine-5-carboxamide]	9.1	13.3
Cc1c(C(=O)C(=O)NC2(C)CS(=O)(=O)C2)c2n(c1C(=O)Nc1ccc(F)c(Cl)c1)CCC2 [Example 21, N-(3-chloro-4-fluorophenyl)-6-methyl-7-(2-((3-methyl-1,1-dioxidothietan-3-yl)amino)-2-oxoacetyl)-2,3-dihydro-1H-pyrrolizine-5-carboxamide]	20.1	17.1
Cc1c(C(=O)C(=O)NC2(c3c[nH]nn3)CC(F)(F)C2)c2n(c1C(=O)Nc1ccc(F)c(C#N)c1)CCC2 [Example 37, N-(3-cyano-4-fluorophenyl)-7-(2-((3,3-difluoro-1-(1H-1,2,3-triazol-4-yl)cyclobutyl)amino)-2-oxoacetyl)-6-methyl-2,3-dihydro-1H-pyrrolizine-5-carboxamide]	5.6	10.9
CNC(=O)C1(NC(=O)C(=O)c2c(C)c(C(=O)Nc3ccnc(C(F)F)c3F)n3c2CCC3)CC(F)(F)C1 [Example 147, 7-(2-((3,3-difluoro-1-(methylcarbamoyl)cyclobutyl)amino)-2-oxoacetyl)-N-(2-(difluoromethyl)-3-fluoropyridin-4-yl)-6-methyl-2,3-dihydro-1H-pyrrolizine-5-carboxamide]	103	24.8
Cc1c(C(=O)C(=O)NC2(C(=O)NC3(C)CS(=O)(=O)C3)CC(F)(F)C2)c2n(c1C(=O)Nc1ccc(F)c(Cl)c1)CCC2 [Example 9, N-(3-chloro-4-fluorophenyl)-7-(2-((3,3-difluoro-1-((3-methyl-1,1-dioxidothietan-3-yl)carbamoyl)cyclobutyl)amino)-2-oxoacetyl)-6-methyl-2,3-dihydro-1H-pyrrolizine-5-carboxamide]	103	11.7
